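Exposure lasted 48 hours, with cells grown in 96-well plates and compounds tested at five concentrations. GI50: concentration for 50% inhibition of growth. At the TGI there is no net growth.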
How the values were obtained:
Assay in all cases: inhibition of tumour cell growth, NCI panel, 48 h
786-0 renal = test system: 786-0 renal
A498 renal = test system: A498 renal
A549 NSCLC = test system: A549 NSCLC
ACHN renal = test system: ACHN renal
BT-549 breast = test system: BT-549 breast
CAKI-1 renal = test system: CAKI-1 renal
COLO 205 colon = test system: COLO 205 colon
DU-145 prostate = test system: DU-145 prostate
EKVX NSCLC = test system: EKVX NSCLC
HCC-2998 colon = test system: HCC-2998 colon
HCT-116 colon = test system: HCT-116 colon
HCT-15 colon = test system: HCT-15 colon
HL-60(TB) leukemia = test system: HL-60(TB) leukemia
HOP-62 NSCLC = test system: HOP-62 NSCLC
HOP-92 NSCLC = test system: HOP-92 NSCLC
HS 578T breast = test system: HS 578T breast
HT29 colon = test system: HT29 colon
K-562 leukemia = test system: K-562 leukemia
KM12 colon = test system: KM12 colon
LOX IMVI melanoma = test system: LOX IMVI melanoma
M14 melanoma = test system: M14 melanoma
MALME-3M melanoma = test system: MALME-3M melanoma
MDA-MB-231 breast = test system: MDA-MB-231 breast
MDA-MB-435 = test system: MDA-MB-435
MOLT-4 leukemia = test system: MOLT-4 leukemia
NCI-H226 lung = test system: NCI-H226 lung
NCI-H23 lung = test system: NCI-H23 lung
NCI-H460 lung = test system: NCI-H460 lung
NCI-H522 lung = test system: NCI-H522 lung
NCI/ADR-RES ovarian = test system: NCI/ADR-RES ovarian
OVCAR-3 ovarian = test system: OVCAR-3 ovarian
OVCAR-4 ovarian = test system: OVCAR-4 ovarian
OVCAR-5 ovarian = test system: OVCAR-5 ovarian
OVCAR-8 ovarian = test system: OVCAR-8 ovarian
PC-3 prostate = test system: PC-3 prostate
RXF 393 renal = test system: RXF 393 renal
SF-268 CNS = test system: SF-268 CNS
SF-295 CNS = test system: SF-295 CNS
SF-539 CNS = test system: SF-539 CNS
SK-MEL-2 melanoma = test system: SK-MEL-2 melanoma
SK-MEL-28 melanoma = test system: SK-MEL-28 melanoma
SK-MEL-5 melanoma = test system: SK-MEL-5 melanoma
SK-OV-3 ovarian = test system: SK-OV-3 ovarian
SN12C renal = test system: SN12C renal
SNB-19 CNS = test system: SNB-19 CNS
SNB-75 CNS = test system: SNB-75 CNS
SR leukemia = test system: SR leukemia
SW-620 colon = test system: SW-620 colon
T-47D breast = test system: T-47D breast
TK-10 renal = test system: TK-10 renal
U251 CNS = test system: U251 CNS
UACC-257 melanoma = test system: UACC-257 melanoma
UACC-62 melanoma = test system: UACC-62 melanoma
UO-31 renal = test system: UO-31 renal

`COc1cc(-c2ccc(=O)oc2C#Cc2ccccc2)cc(OC)c1OC` showed a GI50 (786-0 renal) of 32.6 µM, a TGI (786-0 renal) of over 100 µM and a GI50 (A498 renal) of 30.4 µM. For the same compound, the TGI (A498 renal) was 70.6 µM, the GI50 (A549 NSCLC) was 3.22 µM and the TGI (A549 NSCLC) was 91.1 µM. The GI50 (ACHN renal) was 14.8 µM, the TGI (ACHN renal) was 90.2 µM and the GI50 (BT-549 breast) was 19.2 µM. It also gave a TGI (BT-549 breast) of 63.4 µM, a GI50 (CAKI-1 renal) of 27.4 µM and a TGI (CAKI-1 renal) of over 100 µM. For the same compound, the GI50 (COLO 205 colon) was 34.1 µM, the TGI (COLO 205 colon) was over 100 µM and the GI50 (DU-145 prostate) was 28.3 µM. The TGI (DU-145 prostate) was over 100 µM, the GI50 (EKVX NSCLC) was 83.4 µM and the TGI (EKVX NSCLC) was over 100 µM. It also gave a GI50 (HCC-2998 colon) of over 100 µM, a TGI (HCC-2998 colon) of over 100 µM and a GI50 (HCT-116 colon) of 1.66 µM. For the same compound, the TGI (HCT-116 colon) was over 100 µM, the GI50 (HCT-15 colon) was 13.8 µM and the TGI (HCT-15 colon) was over 100 µM. For the same compound, the GI50 (HL-60(TB) leukemia) was 8.56 µM, the TGI (HL-60(TB) leukemia) was over 100 µM and the GI50 (HOP-62 NSCLC) was 19 µM. It also gave a TGI (HOP-62 NSCLC) of 66.8 µM, a GI50 (HOP-92 NSCLC) of 16.1 µM and a TGI (HOP-92 NSCLC) of 39.2 µM. The GI50 (HS 578T breast) was 6.02 µM, the TGI (HS 578T breast) was 48.4 µM and the GI50 (HT29 colon) was 16.6 µM. It also gave a TGI (HT29 colon) of over 100 µM, a GI50 (K-562 leukemia) of 86.1 µM and a TGI (K-562 leukemia) of over 100 µM. The GI50 (KM12 colon) was 34.6 µM, the TGI (KM12 colon) was over 100 µM and the GI50 (LOX IMVI melanoma) was 1.57 µM. The TGI (LOX IMVI melanoma) was over 100 µM, the GI50 (M14 melanoma) was 48.9 µM and the TGI (M14 melanoma) was over 100 µM. The GI50 (MALME-3M melanoma) was over 100 µM, the TGI (MALME-3M melanoma) was over 100 µM and the GI50 (MDA-MB-231 breast) was 12.4 µM. For the same compound, the TGI (MDA-MB-231 breast) was 35.8 µM, the GI50 (MDA-MB-435) was 14.6 µM and the TGI (MDA-MB-435) was over 100 µM. The GI50 (MOLT-4 leukemia) was 13.2 µM, the TGI (MOLT-4 leukemia) was over 100 µM and the GI50 (NCI-H226 lung) was 22.8 µM. It also gave a TGI (NCI-H226 lung) of over 100 µM, a GI50 (NCI-H23 lung) of 36.9 µM and a TGI (NCI-H23 lung) of over 100 µM. It also gave a GI50 (NCI-H460 lung) of over 100 µM, a TGI (NCI-H460 lung) of over 100 µM and a GI50 (NCI-H522 lung) of 44.5 µM. The TGI (NCI-H522 lung) was over 100 µM, the GI50 (NCI/ADR-RES ovarian) was over 100 µM and the TGI (NCI/ADR-RES ovarian) was over 100 µM. It also gave a GI50 (OVCAR-3 ovarian) of 36.4 µM, a TGI (OVCAR-3 ovarian) of over 100 µM and a GI50 (OVCAR-4 ovarian) of over 100 µM. For the same compound, the TGI (OVCAR-4 ovarian) was over 100 µM, the GI50 (OVCAR-5 ovarian) was over 100 µM and the TGI (OVCAR-5 ovarian) was over 100 µM. The GI50 (OVCAR-8 ovarian) was 52.5 µM, the TGI (OVCAR-8 ovarian) was over 100 µM and the GI50 (PC-3 prostate) was over 100 µM. For the same compound, the TGI (PC-3 prostate) was over 100 µM, the GI50 (RXF 393 renal) was 0.945 µM and the TGI (RXF 393 renal) was 19.9 µM. The GI50 (SF-268 CNS) was 12.7 µM, the TGI (SF-268 CNS) was over 100 µM and the GI50 (SF-295 CNS) was 11.2 µM. The TGI (SF-295 CNS) was 35.5 µM, the GI50 (SF-539 CNS) was 12.7 µM and the TGI (SF-539 CNS) was over 100 µM. It also gave a GI50 (SK-MEL-2 melanoma) of 23.2 µM, a TGI (SK-MEL-2 melanoma) of over 100 µM and a GI50 (SK-MEL-28 melanoma) of 26.7 µM. The TGI (SK-MEL-28 melanoma) was over 100 µM, the GI50 (SK-MEL-5 melanoma) was 3.49 µM and the TGI (SK-MEL-5 melanoma) was over 100 µM. The GI50 (SK-OV-3 ovarian) was 28.5 µM, the TGI (SK-OV-3 ovarian) was 92.9 µM and the GI50 (SN12C renal) was 15.9 µM. The TGI (SN12C renal) was over 100 µM, the GI50 (SNB-19 CNS) was 29.9 µM and the TGI (SNB-19 CNS) was 93.3 µM. It also gave a GI50 (SNB-75 CNS) of 12.1 µM, a TGI (SNB-75 CNS) of 32.6 µM and a GI50 (SR leukemia) of 2.4 µM. It also gave a TGI (SR leukemia) of over 100 µM, a GI50 (SW-620 colon) of 13.3 µM and a TGI (SW-620 colon) of over 100 µM. It also gave a GI50 (T-47D breast) of 45.2 µM, a TGI (T-47D breast) of over 100 µM and a GI50 (TK-10 renal) of 29 µM. It also gave a TGI (TK-10 renal) of over 100 µM, a GI50 (U251 CNS) of 8.09 µM and a TGI (U251 CNS) of 34.4 µM. The GI50 (UACC-257 melanoma) was 56.7 µM, the TGI (UACC-257 melanoma) was over 100 µM and the GI50 (UACC-62 melanoma) was 11.6 µM. The TGI (UACC-62 melanoma) was over 100 µM, the GI50 (UO-31 renal) was 9.1 µM and the TGI (UO-31 renal) was over 100 µM.
For `CC(=O)OCC1OC(n2c(=S)n(-c3ccccc3)c(=O)c3ccccc32)C(OC(C)=O)C(OC(C)=O)C1OC(C)=O` (stereo unspecified), the TGI (CAKI-1 renal) was over 100 µM, the TGI (HOP-92 NSCLC) was over 100 µM and the TGI (OVCAR-4 ovarian) was over 100 µM.

From PubChem BioAssay (NCI)
